From patent US9040500B2, “Method for treating hematopoietic neoplasms” (priority 2007, dated 2015)

Legend:
subcutaneous HL60 tumors [1] = experiment: Subcutaneous in vivo leukemia model (Example 1); set-up: species or system athymic nu/nu mice; details: for tumor volume / tumor growth versus control (PBS): CA1dP or CA4P 75 mg/kg/inj, Ara-C 20 mg/kg/inj, HL60 s.c. in nu/nu mice
Procedure: (§1) HL60 (1×10^7 cells in 0.1 ml) were injected subcutaneously into the dorsa of 4-6 week old athymic nu/nu mice (Southern Research Institute). When palpable tumors were evident (average tumor volume 100 mm^3; i.e. approximately 12 days after inoculation), 6 experimental groups of mice were randomized, each with 10 animals. Treatment was initiated according to the following regimens:
Tumor volume was measured three times a week until the endpoint was reached (tumor volume >3000 mm^3), or for 90 days post-treatment.

[2] = system: intracellular reactive oxygen species (ROS); experiment: Intracellular reactive oxygen species in leukemic cells; assay type: cell-based
leukemic cells = experiment: Leukemic cell proliferation and cell death in vitro; assay type: cell-based; details: low and non-toxic doses
[3] = system: subcutaneous solid tumors; details: concentrations well below the maximum tolerated dose; cited from earlier work
subcutaneous HL60 tumors [4] = experiment: Dose response activity in subcutaneous HL60 model (Example 2); assay type: in vivo, athymic nu/nu mice
Procedure: as §1, with “inoculation), ten” for “inoculation), 6”
Tumor volume was measured three times per week.

tubulin = details: cited from earlier work
[5] = CA1dP combined with araC 20 mg/kg/inj
[6] = CA1dP 75 mg/kg/inj with addition of Ara-C 20 mg/kg/inj
[7] = subcutaneous mouse models of AML, single agent (introduction summary)

## Nc1ccn([C@@H]2O[C@H](CO)[C@@H](O)[C@@H]2O)c(=O)n1 [Ara-C, cytosine arabinoside, reference compound]
Subcutaneous HL60 tumors [1]; single agent
  tumor volume / tumor growth versus control (PBS): little improvement

## COc1cc(/C=C\c2ccc(OC)c(OP(=O)(O)O)c2OP(=O)(O)O)cc(OC)c1OC [CA1dP, combretastatin A-1 diphosphate]
[2]
  intracellular reactive oxygen species (ROS): rapidly increases intracellular reactive oxygen species
Leukemic cells
  leukemic cell proliferation in vitro: inhibit leukemic cell proliferation in vitro
  mitotic arrest and cell death of leukemic cells: induce mitotic arrest and cell death
[3]
  microtubule depolymerization and vascular shutdown causing tumor necrosis: induces rapid microtubule depolymerization and vascular shutdown
Subcutaneous HL60 tumors [4]; CA1dP 2.5, 10, 25, 75 mg/kg/inj, day 3 and 10
  decrease in tumor volume relative to dose: clear dose response relationship
Subcutaneous HL60 tumors [4]; [5]
  duration of tumor growth inhibition, combination versus CA1dP alone: longer growth inhibition
  number of complete responses, combination versus CA1dP alone: not significantly altered
Subcutaneous HL60 tumors [4]; doses of CA1dP above 2.5 mg/kg
  anti-tumor activity: significant anti-tumor activity
Subcutaneous HL60 tumors [1]; [6]
  complete regressions out of ten treated mice: six
  tumor volume versus CA1dP alone: further decreased tumor volumes
Subcutaneous HL60 tumors [1]; co-administration of AraC (introduction summary)
  tumor load with co-administered chemotherapeutic agent: decreases tumor load even further
Subcutaneous HL60 tumors [1]; single agent, 75 mg/kg/inj Q7D x 2
  complete tumor regressions in a population of ten treated mice: five
Subcutaneous HL60 tumors [1]; single agent
  tumor volume / tumor growth versus control (PBS): substantial decreases in tumor volume
Subcutaneous HL60 tumors [1]; [7]
  survival of treated mice: significantly prolonged survival
  tumor load of treated mice: significantly decreased tumor load

## COc1ccc(/C=C\c2cc(OC)c(OC)c(OC)c2)c(O)c1O [Combretastatin A-1]
tubulin
  affinity for tubulin at the colchicine site, relative to colchicine: higher affinity

## COc1ccc(/C=C\c2cc(OC)c(OC)c(OC)c2)cc1OP(=O)(O)O [CA4P, combretastatin A-4 phosphate, reference compound]
Subcutaneous HL60 tumors [1]; single agent, 75 mg/kg/inj
  life span versus controls: extended life span
Subcutaneous HL60 tumors [1]; single agent
  tumor volume / tumor growth versus control (PBS): delayed tumor growth
